For one assay, the system named is Tg2576 Tg+ mice. Briefly: Tg2576 mouse model of Alzheimer's disease (Example 2). In kind it is in vivo. Particulars: 100 μg i.v. weekly for 6 months. As to the method: Ten-month-old male and female Tg2576 Tg+ and Tg− are used (n=10 animals/group). Tg+ mice are treated with Campath 100 μg i.v. weekly for 6 months or placebo (saline), respectively before being sacrificed. TG− mice served as controls Animals are perfused before brain dissection with 0.9% normal saline followed by HEPES buffer, pH 7.2, containing protease inhibitors. […] Tg+ mice fed chow containing ibuprofen for 6 months serve as positive treatment control.

The test system of the next assay is RML prion. In kind it is in vivo, mice. Particulars: Example 1; RML prion i.p.; Campath 100 μg i.v.
For assay [1], the system named is mouse model for Alzheimer's disease. To be noted: literature, Lim et al. 2000; cited from earlier work.

alemtuzumab [Campath]: the “activity in a mouse model of Alzheimer's disease” value in the assay on Tg2576 Tg+ mice was “active”. The “inhibition of the spread of prions in an animal model” value in the assay on RML prion is listed as “can inhibit the spread of prions”.

Consider `CC(C)Cc1ccc(C(C)C(=O)O)cc1` (stereo not drawn) [Ibuprofen], for which the “plaque pathology and inflammation in a mouse model for Alzheimer's disease” value in assay [1] is “suppresses plaque pathology and inflammation”.

The record behind these values is patent US20100178293A1 (priority 2007, published 2010).
